The values below come from patent US7442713B2, “2-thio-substituted imidazole derivatives and their use in pharmaceutics” (Merckle GmbH, priority 2002, dated 2008).

For orientation: IC50 means the midpoint of a concentration-inhibition curve.

One assay has as its system TNFα. The assay can be described thus: In vitro test of cytokine release, LPS-stimulated human whole blood / PBMCs: TNFα. The following applies: LPS stimulation, ELISA; for IC50: Homo sapiens, PBMC, read-out: Cytokines IC50 TNF α. It is filed as cell-based. As for the experimental part: (§1) The compounds or compositions according to the invention can be administered to mammals (man or animal) in a dose of from about 0.5 mg to 100 mg per kg of body weight per day. They may be administered in one individual dose or in a plurality of doses. The activity spectrum of the compounds as inhibitors of cytokine release was examined using the test systems below, as described by C. Donat and S. Laufer in Arch. Pharm. Pharm. Med. Chem. 333, Suppl. 1, 1-40, 2000.
(§2) In vitro Test with Human Whole Blood
(§3) The test substance is added to samples of human potassium-EDTA whole blood (of 400 μl each) and the samples are preincubated in a CO2 incubator (5% CO2; 95% moisture-saturated air) at 37° C. for 15 min. The samples are then stimulated with 1 μg/ml of LPS (E. coli 026:B6) at 37° C. in a CO2 incubator (5% CO2; 95% moisture-saturated air) for 4 hours. The reaction is stopped by placing the samples on ice, adding DPBS buffer and then centrifuging at 1000*g for 15 min. The amount of IL-1β and TNFα in the plasma supernatant is then determined by ELISA.
(§4) 1) The mononuclear cells (PBMCs) from human potassium-EDTA whole blood, diluted 1:3, are isolated by density gradient centrifugation (Histopaque®-1.077). The cells are washed twice with DPBS buffer, resuspended in macrophage SFM medium and adjusted to a cell count of 1*10^6 cells/ml.
(§5) The resulting PBMCs suspension (samples of in each case 390 μl) and the test substance are preincubated at 37° C. in a CO2 incubator (5% CO2; 95% moisture-saturated air) for 15 min. The samples are then stimulated with in each case […] of LPS (E. coli 026:B6) at 37° C. in a CO2 incubator (5% CO2; 95% moisture-saturated air) for 4 hours. The reaction is stopped by placing the samples on ice, adding DPBS buffer and then centrifuging at 15 880*g for 12 min. The amount of IL-1β and TNFα in the plasma supernatant is then determined by ELISA.
A general note: ELISA stands for enzyme-linked immunosorbent assay.

A further assay relates to IL-1β. In words: In vitro test of cytokine release, LPS-stimulated human whole blood / PBMCs: IL-1β. Type of assay: cell-based. The note with it: PBMC, LPS stimulation, ELISA, read-out: Cytokines IC50 IL-1β. As for the experimental part:
as §1, §2, §3, §4, §5

The target in a further assay is activated p38α (Homo sapiens, UniProt Q16539). In words: Kinase assay (p38α, ATF2 substrate, ELISA read-out). It is filed as biochemical. The following applies: Table 1; for IC50: 100 μM ATP, 10 ng activated p38α, read-out: Kinase assay IC50. As for the experimental part:
At 37° C., microtiter plates were coated with 50 μl of ATF2 solution ([…]) for one hour. The plates were washed three times with water, and 50 μl of kinase mixture (50 mM tris-HCl, 10 mM MgCl2, 10 mM β-glycerol phosphate, 10 μg/ml BSA, 1 mM DTT, 100 μM ATP, 100 μM Na3VO4, 10 ng of activated p38α) with or without inhibitor were then added into the wells, and the plates were incubated at 37° C. for 1 hour. The plates were washed three times and then incubated at 37° C. with phosphorus-ATF-2 antibodies for one hour. Once more, the plates were washed three times, and goat-anti-rabbit IgG labeled with alkaline phosphatase was then added at 37° C. for one hour (to immobilize antibody-phosphorylated protein-substrate complex). After washing three times, the alkaline phosphatase-substrate solution (3 mM 4-NPP, 50 mM NaHCO3, 50 mM MgCl2, 100 μl/well) was added at 37° C. for 1.5 hours. The formation of 4-nitrophenolate was measured at 405 nm using a microtiter plate reader. The IC50 values were calculated.

Structures are written as SMILES.

activated p38α, sequence (Q16539 whole entry): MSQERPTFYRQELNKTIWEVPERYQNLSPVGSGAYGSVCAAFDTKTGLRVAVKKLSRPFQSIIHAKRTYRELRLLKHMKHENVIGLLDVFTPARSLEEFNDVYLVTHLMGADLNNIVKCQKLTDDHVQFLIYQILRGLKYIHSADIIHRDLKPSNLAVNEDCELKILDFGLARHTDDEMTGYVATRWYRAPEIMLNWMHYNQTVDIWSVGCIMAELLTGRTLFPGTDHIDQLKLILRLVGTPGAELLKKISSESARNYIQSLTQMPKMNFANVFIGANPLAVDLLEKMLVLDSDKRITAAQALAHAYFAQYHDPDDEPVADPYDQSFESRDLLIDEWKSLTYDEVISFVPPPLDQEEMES

On to `COC(=O)CCCCSc1nc(-c2ccc(F)cc2)c(-c2ccncc2)[nH]1` [Example 25, Methyl 5-(4-fluorophenyl)-4-(4-pyridinyl)imidazole-2-thio-5-valerate], for which the “Cytokines TNF α % at 10^−5 mol/l” value with TNFα was 28% at10^−5 mol/l. For the same compound, the IC50 in the assay on IL-1β stood at 1.45 µM.
In the case of `O=C1c2ccccc2C(=O)N1CCCSc1nc(-c2ccc(F)cc2)c(-c2ccncc2)[nH]1` [Example 25d, 5-(4-Fluorophenyl)-4-(4-pyridinyl)imidazole-2-thio-3-propyl-N-phthalimide], the IC50 on activated p38α stood at 5.5 µM; in the assay with IL-1β, 0.92 µM.
For the compound `COC(=O)CCCSc1nc(-c2ccc(F)cc2)c(-c2ccncc2)[nH]1` [Example 25a, Methyl 5-(4-fluorophenyl)-4-(4-pyridinyl)imidazole-2-thio-4-butyrate], the “Cytokines TNF α % at 10^−5 mol/l” value in the assay with TNFα stood at 38% at10^−5 mol/l. The IC50 with IL-1β is 0.75 µM.
Take `O=C(O)C(CCO)Sc1nc(-c2ccc(F)cc2)c(-c2ccncc2)[nH]1` (stereo not drawn) [Example 24, 5-(4-Fluorophenyl)-4-(4-pyridinyl)imidazole-2-thio-2-butanoic acid-4-ol]: the IC50 worked out at 3.8 µM with TNFα and 0.14 µM in the assay with IL-1β.
Taken in the same sequence, the figures for `CCOC(=O)C(Sc1nc(-c2ccc(F)cc2)c(-c2ccncc2)[nH]1)C(=O)OCC` [Example 22, Diethyl 5-(4-fluorophenyl)-4-(4-pyridinyl)imidazole-2-thio-2-malonate] were 0.36 µM and 0.54 µM.
Consider `CC(=O)CSc1nc(-c2ccc(F)cc2)c(-c2ccncc2)n1C` [Example 26, 1-[4-(4-Fluorophenyl)-1-methyl-5-pyridin-4-yl-1H-imidazol-2-ylsulfanyl]propan-2-one], for which the “Kinase assay % at 10^−5 mol/l” value at activated p38α amounted to 37.0% at10^−5 mol/l. Besides, the IC50 in the assay on IL-1β is 0.083 µM.
Regarding `COC(=O)CSc1nc(-c2ccc(F)cc2)c(-c2ccncc2)[nH]1` [Example 25c, Methyl 5-(4-fluorophenyl)-4-(4-pyridinyl)imidazole-2-thio-2-acetate], the figures for the IC50 at activated p38α, in the assay on TNFα and in the assay on IL-1β were 0.75 µM, 2.1 µM and 0.32 µM, respectively.
Consider `OCC(O)CSc1nc(-c2ccc(F)cc2)c(-c2ccncc2)[nH]1` (stereo not drawn) [Example 21, 5-(4-Fluorophenyl)-4-(4-pyridinyl)imidazole-2-thio-1-propane-2,3-diol], for which the IC50 worked out at 0.9 µM in the assay on TNFα and 0.15 µM in the assay with IL-1β.
Taken in the same sequence, the figures for `O=C1OCCC1Sc1nc(-c2ccc(F)cc2)c(-c2ccncc2)[nH]1` (stereo not drawn) [Example 23, 5-(4-Fluorophenyl)-4-(4-pyridinyl)imidazole-2-thio-3-butyrolactone] were 3.8 µM and 0.19 µM.
Turning to `CN(C)C(=O)CSc1nc(-c2ccc(F)cc2)c(-c2ccncc2)n1C` [Example 27, 1-[4-(4-Fluorophenyl)-1-methyl-5-pyridin-4-yl-1H-imidazol-2-ylsulfanyl]-N,N-dimethylacetamide], the “Kinase assay % at 10^−5 mol/l” value at activated p38α worked out at 29.0% at10^−5 mol/l. In addition, the IC50 turned out to be 3 µM in the assay with TNFα and 0.15 µM in the assay with IL-1β.
For `CCOC(=O)CSc1nc(-c2ccc(F)cc2)c(-c2ccncc2)[nH]1` [Example 25e, Ethyl 5-(4-fluorophenyl)-4-(4-pyridinyl)imidazole-2-thio-2-acetate], the results for the IC50 on activated p38α, with TNFα and in the assay on IL-1β were 0.975 µM, 9.5 µM and 0.7 µM, respectively.
In the case of `COC(=O)/C=C/CSc1nc(-c2ccc(F)cc2)c(-c2ccncc2)[nH]1` [Example 25b, Methyl 5-(4-fluorophenyl)-4-(4-pyridinyl)imidazole-2-thio-4-crotonate], the IC50 in the assay with TNFα is 1.1 µM; with IL-1β it was 0.65 µM.
